Data set [1] relates to INS-1 insulinoma xenograft. In words: In vivo blocking experiment with unlabelled liraglutide (biodistribution). On the set-up: species or system BALB/c nude mice. Particulars: 100 µg unlabelled liraglutide i.v. 30 min before approx. 100 µCi tracer, 90 min, p<0.05, N = 3. How it is done: (§1) A total of 24 nude mice were each subcutaneously injected in the armpit of the right upper limb with 100 µl of a suspension of INS-1 cells (containing approximately 10^7 cells per 100 µl). The nude mice were reared under conventional sterile conditions and given 5% dextrose injections as drinking water (Shanghai Changzheng Fumin Jinshan Pharmaceutical, Shanghai, China). Their blood glucose levels were monitored every 2–3 days with a glucometer (Accu-Chek Integra integrated blood glucose meter, Roche, Berlin, Germany), and all measured blood glucose levels were at least 3 mmol/L.
In this experiment, 100 µl of liraglutide solution containing 100 µg of unlabelled liraglutide, was injected into the tail veins of each of 3 nude mice with insulinoma. Half an hour later, 100 µl of ^125I-liraglutide solution containing approximately 100 µCi of ^125I-liraglutide was injected into the tail vein of each mouse. To create an unblocked experimental group that corresponded with this blocked group, 100 µl of ^125I-liraglutide solution containing approximately 100 µCi of ^125I-liraglutide was injected into the tail veins of each of 3 more nude mice with insulinoma. These six nude mice with insulinoma were sacrificed by cervical dislocation at 90 min after the ^125I-liraglutide injection. First, blood was collected from the heart and various organs and tissues were isolated; the isolated samples were then placed into tubes that were impervious to γ radiation and weighed. For each tube, the radioactivity in counts per minute was then measured by a γ counter. The results were presented in terms of %ID/g. A histogram of %ID/g for various organs at the 90 min time point in the blocked and unblocked groups was plotted.

Data set [2] has as its system INS-1 insulinoma xenograft. In words: In vivo distribution of radioactivity across organs in nude mouse insulinoma model. Further details: species or system BALB/c nude mice. Particulars: 90 min after injection of approx. 100 µCi, from %ID/g, mean ± SD, N = 3. As to the method: as §1
Six nude mice each received a 100 µl injection containing approximately 100 µCi of ^125I-liraglutide. At 90 min and 360 min after this injection, 3 mice were sacrificed by cervical dislocation. First, blood was collected from the heart; next, isolated various organs and tissues, including the heart, lungs, liver, stomach, kidneys, spleen, small intestine, and pancreas, as well as muscle tissue and the tumour; the isolated samples were then placed into tubes that were impervious to γ radiation and weighed. For each tube, the radioactivity in counts per minute was then measured by a γ counter. The results were presented in terms of %ID/g (the percentage of the total injected dose of radioactivity per gram of tissue). Histograms of %ID/g for various organs at the 90 min and 360 min time points were plotted.

Data set [3] is described as follows: In vitro stability in fetal bovine serum. The data set is classed as in vitro ADME. Particulars: 37°C, 0 h.
For data set [4] the following is noted: cited from earlier work.
The next data set concerns the target GLP-1 receptors. On the set-up: method as in PMID 23652208. To be noted: Rin-m5f insulinoma cells, earlier exendin-4 imaging study of the authors; cited from earlier work.
The conditions of data set [5]: in vivo; cited from earlier work. The text has this:
This approach can be utilised for qualitative diagnoses, accurate staging, and evaluation of treatment efficacy. However, the detection rate of SSTR imaging for insulinoma is not high. […] This limited utility is because in tumours, among the five subtypes of SSTRs (SSTR1-SSTR5), radionucli ...

On to `CCCCCCCCCCCCCCCC(=O)N[C@@H](CCC(=O)NCCCC[C@H](NC(=O)[C@H](C)NC(=O)[C@H](C)NC(=O)[C@H](CCC(N)=O)NC(=O)CNC(=O)[C@H](CCC(=O)O)NC(=O)[C@H](CC(C)C)NC(=O)[C@H](Cc1ccc(O)c(I)c1)NC(=O)[C@H](CO)NC(=O)[C@H](CO)NC(=O)[C@@H](NC(=O)[C@H](CC(=O)O)NC(=O)[C@H](CO)NC(=O)[C@@H](NC(=O)[C@H](Cc1ccccc1)NC(=O)[C@@H](NC(=O)CNC(=O)[C@H](CCC(=O)O)NC(=O)[C@H](C)NC(=O)[C@@H](N)Cc1c[nH]cn1)[C@@H](C)O)[C@@H](C)O)C(C)C)C(=O)N[C@@H](CCC(=O)O)C(=O)N[C@@H](Cc1ccccc1)C(=O)N[C@H](C(=O)N[C@@H](C)C(=O)N[C@@H](Cc1c[nH]c2ccccc12)C(=O)N[C@@H](CC(C)C)C(=O)N[C@H](C(=O)N[C@@H](CCCNC(=N)N)C(=O)NCC(=O)N[C@@H](CCCNC(=N)N)C(=O)NCC(=O)O)C(C)C)[C@@H](C)CC)C(=O)O` [125I-liraglutide], for which, in data set [1], the “radioactivity (%ID/g) of the lungs after blocking” value was “significantly decreased”, the “radioactivity (%ID/g) of the pancreas after blocking” value is “significantly decreased” and the “radioactivity (%ID/g) of the tumour after blocking” value is reported as “significantly reduced”. In data set [2], the “T/NT ratio, tumour to muscle tissue” value was 4.83±1.30 and the “T/NT ratio, tumour to pancreatic tissue” value is reported as 2.73±0.80. The “intact peptide in fetal bovine serum” value in data set [3] is recorded as 92.9%.
As for `CCCCCCCCCCCCCCCC(=O)N[C@@H](CCC(=O)NCCCC[C@H](NC(=O)[C@H](C)NC(=O)[C@H](C)NC(=O)[C@H](CCC(N)=O)NC(=O)CNC(=O)[C@H](CCC(=O)O)NC(=O)[C@H](CC(C)C)NC(=O)[C@H](Cc1ccc(O)cc1)NC(=O)[C@H](CO)NC(=O)[C@H](CO)NC(=O)[C@@H](NC(=O)[C@H](CC(=O)O)NC(=O)[C@H](CO)NC(=O)[C@@H](NC(=O)[C@H](Cc1ccccc1)NC(=O)[C@@H](NC(=O)CNC(=O)[C@H](CCC(=O)O)NC(=O)[C@H](C)NC(=O)[C@@H](N)Cc1cnc[nH]1)[C@@H](C)O)[C@@H](C)O)C(C)C)C(=O)N[C@@H](CCC(=O)O)C(=O)N[C@@H](Cc1ccccc1)C(=O)N[C@H](C(=O)N[C@@H](C)C(=O)N[C@@H](Cc1c[nH]c2ccccc12)C(=O)N[C@@H](CC(C)C)C(=O)N[C@H](C(=O)N[C@@H](CCCNC(=N)N)C(=O)NCC(=O)N[C@@H](CCCNC(=N)N)C(=O)NCC(=O)O)C(C)C)[C@@H](C)CC)C(=O)O` [liraglutide], the in vivo half-life result in data set [4] is on record as “up to 13 h”.
Broadly, the IC50 is the concentration needed to halve the response being measured. In general, Kd refers to the equilibrium constant for the complex coming apart. Regarding Exendin-4, on GLP-1 receptors, the IC50 was 0.35 to 2.81 nM and the Kd is 56.6 nM.
Glucagon-like peptide-1 [GLP-1]: the serum half-life result in data set [5] is “less than 2 min”.

The values are drawn from PMC4013070, “The Imaging of Insulinomas Using a Radionuclide-Labelled Molecule of the GLP-1 Analogue Liraglutide: A New Application of Liraglutide” (PLoS ONE, 2014).
